Measured values: ChEMBL document CHEMBL1201862, “PubChem BioAssay data set” (2004)
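Step 1: Grow cells in 96-well plates. Step 2: Expose to compound for 48 hours at 5 concentrations. Step 3: Interpolate endpoints linearly; if unreached, use highest concentration. Abbreviation: GI50, concentration required for 50% inhibition of growth.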 Calls of active or inactive are those of the source. No stated cut-off is given here; in the data, active = GI50 up to about 1.1 µM and inactive = higher.

What was measured:
Experiment in all cases: growth of human tumour cells (NCI), 48 h
DU-145 = test system: DU-145
SW-620 = test system: SW-620
UO-31 = test system: UO-31
SF-268 = test system: SF-268
MOLT-4 = test system: MOLT-4
SF-295 = test system: SF-295
786-0 = test system: 786-0
HL-60 = test system: HL-60
NCI/ADR-RES = test system: NCI/ADR-RES
TK-10 = test system: TK-10
HOP-92 = test system: HOP-92
U-251 = test system: U-251
LOX IMVI = test system: LOX IMVI
SNB-75 = test system: SNB-75
NCI-H23 = test system: NCI-H23
KM12 = test system: KM12
RPMI-8226 = test system: RPMI-8226
OVCAR-8 = test system: OVCAR-8
SR = test system: SR
UACC-62 = test system: UACC-62

Measured: GI50

COc1cc(OC)c(OC)cc1/C=C/c1nc2ccccc2s1
inactive: DU-145 > 100 µM | SW-620 > 100 µM | UO-31 47.2 µM | SF-268 > 100 µM | MOLT-4 34.2 µM | SF-295 67 µM | 786-0 > 100 µM | HL-60 5.52 µM | NCI/ADR-RES > 100 µM | TK-10 98.2 µM | HOP-92 6.35 µM | U-251 > 100 µM | LOX IMVI > 100 µM | SNB-75 91.4 µM | NCI-H23 86.5 µM | KM12 > 100 µM | RPMI-8226 31 µM | OVCAR-8 > 100 µM

COc1ccc(Oc2nc3ccc(C(F)(F)F)cc3nc2-c2ccccc2)cc1
inactive: DU-145 > 100 µM | SW-620 > 100 µM | UO-31 1.57 µM | SF-268 > 100 µM | SR 13.1 µM | MOLT-4 62.4 µM | SF-295 > 100 µM | 786-0 > 100 µM | HL-60 42 µM | TK-10 > 100 µM | HOP-92 49.9 µM | U-251 > 100 µM | UACC-62 > 100 µM | LOX IMVI > 100 µM | NCI-H23 1.13 µM | KM12 > 100 µM | RPMI-8226 7.23 µM

N#C/C(=C/NC(=S)Nc1ccc(S(N)(=O)=O)cc1)C(N)=O
inactive: DU-145 > 100 µM | SW-620 > 100 µM | SF-268 > 100 µM | SR > 100 µM | MOLT-4 > 100 µM | SF-295 > 100 µM | 786-0 > 100 µM | HL-60 43.7 µM | TK-10 > 100 µM | HOP-92 > 100 µM | U-251 > 100 µM | UACC-62 > 100 µM | SNB-75 42.1 µM | NCI-H23 > 100 µM | KM12 > 100 µM | RPMI-8226 > 100 µM | OVCAR-8 > 100 µM

Cc1cn(C2CC(n3cc(Cn4cc(F)c(=O)[nH]c4=O)nn3)C(CO)O2)c(=O)[nH]c1=O (configuration not stated)
inactive: DU-145 > 100 µM | SW-620 > 100 µM | UO-31 > 100 µM | SF-268 > 100 µM | MOLT-4 > 100 µM | SF-295 > 100 µM | 786-0 > 100 µM | HL-60 43.7 µM | NCI/ADR-RES > 100 µM | TK-10 > 100 µM | HOP-92 > 100 µM | U-251 > 100 µM | UACC-62 > 100 µM | LOX IMVI > 100 µM | SNB-75 > 100 µM | NCI-H23 > 100 µM | KM12 > 100 µM | RPMI-8226 > 100 µM | OVCAR-8 > 100 µM

CS[C@]12[C@@H]3C(=O)N(C)C(=O)[C@@H]3[C@](C)(C(=O)N1C)C(=O)N2c1ccccc1
inactive: DU-145 > 100 µM | SW-620 > 100 µM | UO-31 > 100 µM | SF-268 > 100 µM | MOLT-4 > 100 µM | SF-295 > 100 µM | 786-0 > 100 µM | HL-60 > 100 µM | NCI/ADR-RES > 100 µM | TK-10 > 100 µM | HOP-92 > 100 µM | U-251 > 100 µM | UACC-62 > 100 µM | LOX IMVI > 100 µM | SNB-75 > 100 µM | NCI-H23 > 100 µM | KM12 > 100 µM | RPMI-8226 > 100 µM | OVCAR-8 > 100 µM

Cc1c(C(=O)C(=O)c2ccccc2)c(C)c(C(=O)C(=O)c2ccccc2)c(C)c1C(=O)C(=O)c1ccccc1
inactive: SW-620 > 100 µM | UO-31 > 100 µM | SF-268 > 100 µM | SR > 100 µM | MOLT-4 > 100 µM | SF-295 > 100 µM | 786-0 > 100 µM | HL-60 > 100 µM | NCI/ADR-RES > 100 µM | TK-10 > 100 µM | U-251 > 100 µM | SNB-75 > 100 µM | KM12 > 100 µM | RPMI-8226 > 100 µM | OVCAR-8 > 100 µM

CN(C)CCCNc1nnc(NCCCN(C)C)c2c(=O)c3sccc3[nH]c12
inactive: DU-145 8.75 µM | SW-620 4.56 µM | UO-31 2.75 µM | SF-268 5.53 µM | MOLT-4 3.24 µM | SF-295 13.7 µM | 786-0 4.59 µM | HL-60 3.59 µM | NCI/ADR-RES 8.15 µM | TK-10 9.86 µM | HOP-92 35.8 µM | U-251 22.2 µM | UACC-62 14.2 µM | LOX IMVI 14 µM | SNB-75 6.73 µM | NCI-H23 10.8 µM | KM12 5.75 µM | RPMI-8226 9.02 µM | OVCAR-8 3 µM

CC(=O)N1c2ccccc2C23CCN4CC5=CCOC(O)C(C5CC42)C13 (configuration not stated)
inactive: DU-145 > 100 µM | SW-620 > 100 µM | UO-31 > 100 µM | SF-268 > 100 µM | MOLT-4 > 100 µM | SF-295 > 100 µM | 786-0 > 100 µM | HL-60 > 100 µM | NCI/ADR-RES > 100 µM | TK-10 > 100 µM | HOP-92 > 100 µM | U-251 > 100 µM | UACC-62 > 100 µM | LOX IMVI > 100 µM | SNB-75 > 100 µM | NCI-H23 > 100 µM | KM12 > 100 µM | RPMI-8226 > 100 µM | OVCAR-8 > 100 µM

C(=N\OCCc1ccccc1)/c1cccnc1
inactive: DU-145 > 100 µM | SW-620 > 100 µM | UO-31 > 100 µM | SF-268 > 100 µM | MOLT-4 76.7 µM | SF-295 > 100 µM | 786-0 > 100 µM | HL-60 5.02 µM | NCI/ADR-RES > 100 µM | TK-10 > 100 µM | HOP-92 > 100 µM | U-251 > 100 µM | UACC-62 > 100 µM | SNB-75 71.6 µM | NCI-H23 > 100 µM | KM12 > 100 µM | RPMI-8226 > 100 µM | OVCAR-8 > 100 µM

COc1ccc2nc3cc([N+](=O)[O-])ccc3c(Nc3ccc(S(=O)(=O)N=C(N)N)cc3)c2c1
inactive: DU-145 28.8 µM | SW-620 36.8 µM | UO-31 30.5 µM | SF-268 28 µM | SR 1.32 µM | MOLT-4 2.72 µM | SF-295 47.1 µM | 786-0 20.1 µM | HL-60 11.9 µM | TK-10 47.2 µM | HOP-92 11.5 µM | U-251 30.5 µM | UACC-62 14.6 µM | LOX IMVI 28.4 µM | NCI-H23 26.8 µM | KM12 15.5 µM | RPMI-8226 10.5 µM

COc1ccc(-n2c(=O)n(-c3ccccc3)c(=O)n2-c2ccc(OC)cc2)cc1
inactive: DU-145 > 100 µM | SW-620 > 100 µM | UO-31 > 100 µM | MOLT-4 > 100 µM | SF-295 > 100 µM | 786-0 > 100 µM | HL-60 > 100 µM | NCI/ADR-RES > 100 µM | TK-10 > 100 µM | HOP-92 27.7 µM | U-251 > 100 µM | UACC-62 > 100 µM | LOX IMVI > 100 µM | SNB-75 > 100 µM | NCI-H23 > 100 µM | KM12 > 100 µM | RPMI-8226 > 100 µM | OVCAR-8 > 100 µM

Cc1nc(O)nc2nc3cc(Cl)cc(Cl)c3c(NC(C)(CO)CO)c12
inactive: DU-145 29.2 µM | SW-620 > 100 µM | UO-31 91 µM | SF-268 25.7 µM | MOLT-4 > 100 µM | SF-295 30.3 µM | 786-0 15.6 µM | NCI/ADR-RES > 100 µM | TK-10 27.4 µM | HOP-92 16.4 µM | U-251 14.4 µM | UACC-62 72.3 µM | LOX IMVI > 100 µM | SNB-75 11.4 µM | NCI-H23 81.8 µM | KM12 > 100 µM | OVCAR-8 75.2 µM

Cc1nc2c(=O)n3c4c(cccc4c2o1)CCC3
inactive: DU-145 > 100 µM | SW-620 > 100 µM | UO-31 > 100 µM | SF-268 > 100 µM | MOLT-4 37.9 µM | SF-295 > 100 µM | 786-0 > 100 µM | HL-60 > 100 µM | NCI/ADR-RES > 100 µM | TK-10 > 100 µM | HOP-92 > 100 µM | U-251 96.8 µM | UACC-62 > 100 µM | LOX IMVI > 100 µM | SNB-75 > 100 µM | NCI-H23 > 100 µM | KM12 > 100 µM | RPMI-8226 > 100 µM | OVCAR-8 > 100 µM

O=C1/C(=C/c2ccc(Br)s2)NC(=S)N1c1ccccc1
inactive: DU-145 > 100 µM | SW-620 > 100 µM | UO-31 > 100 µM | SF-268 > 100 µM | SR > 100 µM | MOLT-4 > 100 µM | SF-295 43.6 µM | 786-0 40.8 µM | HL-60 > 100 µM | TK-10 > 100 µM | HOP-92 25.7 µM | U-251 36.6 µM | UACC-62 47.2 µM | LOX IMVI > 100 µM | NCI-H23 > 100 µM | KM12 > 100 µM | RPMI-8226 22.5 µM

O=c1ncccn1[C@@H]1O[C@H](CO)[C@H](O)C1O (some centres not stated)
inactive: SW-620 > 100 µM | UO-31 > 100 µM | SF-268 71.8 µM | SR 43.6 µM | MOLT-4 61.7 µM | SF-295 > 100 µM | 786-0 > 78 µM | HL-60 47.3 µM | TK-10 > 100 µM | HOP-92 > 71.3 µM | U-251 > 100 µM | UACC-62 > 99.5 µM | LOX IMVI > 61.8 µM | SNB-75 53.8 µM | NCI-H23 > 100 µM | KM12 > 100 µM | RPMI-8226 > 74.5 µM | OVCAR-8 > 74.5 µM
